The record followed here is publication PMC8836561, “Poly-Lysine Dendritic Nanocarrier to Target Epidermal Growth Factor Receptor Overexpressed Breast Cancer for Methotrexate Delivery” (Materials, 2022).

For data set [1], the system named is MDA-MB-231 cells. The experiment in a line: In vitro binding of rhodamine B-conjugated peptides, MDA-MB-231. Format: cell-based. The conditions noted are these: MDA-MB-231, 2 h, 37 °C, flow cytometry and confocal imaging. On the procedure:
Figure S4. Binding activities of rho B-conjugated peptides after incubating with MDA-MB-231 cells for 2 hours at 37°C. a) Untreated control MDA-MB-231 cell. MDA-MB-231 cells binding with b) E1, c) E2, d) E3, e) E4, and f) E5. g) Binding affinity percentages of rho B- conjugated peptides. […]
Figure S6. Internalization of peptides in MDA -MB-231 cells. MDA-MB-231 (EGFR overexpressed) cells were incubated with E1 to E5 peptides (50 µM) for 2 hours at 37°C. Rho-B alone was given as the control. The cells were nuclear stained […]
(1 picture or pasted object on this page, not shown here)
On the technique in general: In flow cytometry, cells or beads pass a laser one at a time.

Data set [2] deals with MDA-MB-231 cells. In words: Cell cycle analysis by flow cytometry (propidium iodide), MDA-MB-231. The note with it: MDA-MB-231, 24 h incubation, FACS. Format: cell-based. As for the experimental part:
(§1) The cell cycle analysis was conducted by flow cytometry using the manufacturer’s protocol. Briefly, MDA-MB-231 and SiHa cells (1 × 10^5cells/well) were incubated with MTX and MTX–G–P4LDN–E2 for 24 h, trypsinized, and centrifuged to collect the pellet. The cells were then fixed with pre-cooled 70% ethanol at 4 °C for 45 min. After fixation, the pellet was collected carefully after centrifugation at 850× g for 5 min. It was then washed twice with 1X PBS, and 50 μL RNase (100 μg/mL) was added and incubated for 45 min at 37 °C. Then, the cells were washed with 1X PBS and stained with propidium iodide (100 μL, 50 μg/mL) for 10 min. The cellular DNA was analyzed by flow cytometer, and the percentage of cells in each phase of the cell cycle was analyzed by BD FACS Diva software.

Data set [3] deals with MDA-MB-231 (EGFR overexpressed) cells. In words: Receptor binding ability by flow cytometry, MDA-MB-231. The data set is classed as cell-based. The conditions noted are these: fluorescein MTX 5 µg/mL or fluorescein MTX-conjugated system 8.6 µg/mL (equivalent MTX), 24 h. As for the experimental part: (§2) Then fluorescein MTX (5 µg/mL) and fluorescein MTX-conjugated systems (8.6 µg/mL; having equivalent MTX concentrations) were added to each well and incubated for 24 h. After incubation, the cells were trypsinized and analyzed by flow cytometry. The cells without MTX or DDS treatment were taken as the control.

Data set [4] concerns SiHa (EGFR negative) cells. In words: Functional evaluation by confocal microscopy, SiHa. Format: cell-based. The conditions noted are these: fluorescein MTX 5 µg/mL or conjugated system 8.6 µg/mL, 24 h. On the procedure:
(§3) MDA-MB-231 (EGFR overexpressed) and SiHa (EGFR negative) cells were grown on coverslips inside the 6-well plates, and the receptor binding ability of MTX–G–P4LDN–E2 was analyzed by confocal microscopy. Fluorescein methotrexate (5 µg/mL) and fluorescein MTX conjugated system (8.6 µg/mL; having equivalent methotrexate concentrations) were added to the wells and incubated for 24 h. The cells without MTX or DDS treatment were taken as the control. Then, Hoechst 33342 (10 µg/mL) was added and incubated for 15 min. The cells were observed under a confocal laser scanning microscope at suitable magnifications.

The test system of data set [5] is MDA-MB-231 cells. The experiment in a line: Cytotoxicity by MTT assay, MDA-MB-231. Format: cell-based. The conditions noted are these: MDA-MB-231 (receptor positive), MTX 5 µg/mL or nanocarrier system at equivalent drug concentration (8.6 µg/mL), 48 h, triplicate. On the procedure:
(§4) The cytotoxic efficacy of MTX–G–P4LDN–E2 was analyzed by an MTT assay. The cells were seeded in a 96-well plate at a density of 5000 cells per well. […] After 48 h of incubation, the cells were washed twice with 1X PBS, followed by the addition of MTT reagent (100 μL; 5 mg/mL in PBS) and 100 μL serum-free media to all wells and incubated for 3 h. Then DMSO (100 µL) was added to solubilize the formazan crystals, formed in viable cells. After 20 min, the optical density (OD) was measured at 570 nm using a microplate reader (BioRad). The percentage cell viability was calculated as 100 percentage cytotoxicity, where: % cytotoxicity=O.D of control−O.D of test /O.D of control[…]
Background: Tetrazolium assays rely on reduction of a dye to a coloured formazan, in cell work by metabolically active cells.

Data set [6] deals with SiHa cells. In words: Cytotoxicity by MTT assay, SiHa. The data set is classed as cell-based. The note with it: SiHa (receptor negative), MTX 5 µg/mL or nanocarrier system at equivalent drug concentration (8.6 µg/mL), 48 h, triplicate. As for the experimental part: as §4
Data set [7] concerns MDA-MB-231 (EGFR overexpressed) cells. In words: Functional evaluation by confocal microscopy, MDA-MB-231. The data set is classed as cell-based. The conditions noted are these: fluorescein MTX 5 µg/mL or conjugated system 8.6 µg/mL, 24 h. As for the experimental part:
as §3

Data set [8] deals with SiHa cells. The experiment in a line: Cell cycle analysis by flow cytometry (propidium iodide), SiHa. The data set is classed as cell-based. The note with it: 24 h incubation, FACS. On the procedure: as §1
Data set [9] concerns SiHa (EGFR negative) cells. In words: Receptor binding ability by flow cytometry, SiHa. Format: cell-based. The note with it: fluorescein MTX 5 µg/mL or fluorescein MTX-conjugated system 8.6 µg/mL (equivalent MTX), 24 h. As for the experimental part: as §2
Another data set deals with MDA-MB-231 tumor. In words: Anti-tumor efficacy in MDA-MB-231 tumor-bearing NOD-SCID mice. The data set is classed as in vivo. The conditions noted are these: female NOD-SCID mice, tail vein, 5 times for 20 days. On the procedure:
For analyzing the efficacy of the nanocarrier systems, fifteen male and fifteen female NOD-SCID mice were assigned to three groups each (n = 3 in first group and n = 6 in second and third groups). Tumor was implanted by injecting cells subcutaneously in the dorsolateral flank with a concentration of 5 × 10^6 MDA-MB-231 cells to female NOD-SCID mice. When the volume of tumor reached 500–1000 mm^3, the first group of animals, serving as the control group, was given PBS (5 mL/kg body weight). The second group was given free-drug MTX (20 mg/kg) through the tail vein. The third group received MTX–G–P4LDN–E2 (35 mg/kg, equivalent to the MTX concentration) through the tail vein, and the treatment was given to the mice 5 times for 20 days.
The tumor volume and body weight of the animals were measured before each injection. The body weight and tumor volume on the final day (24th day) was also calculated. A vernier caliper was used to measure the tumor, and the tumor volume was calculated using the formula: Tumor volume (mm^3)=(length in mm)×(width in mm)^2/2
The treatment was started when the tumor volume reached 500–1000 mm^3. There were 3 groups (n = 3 for control group and n = 6 for treatment groups). First group received PBS (5 mL/kg body weight) was treated as the control. […] On every injection day, the tumor volume as well as the body weight of the animals were measured.

Several values for one entry are separate records, joined by “and”; a condition that tells them apart may be missing. Equal values may be shown once.

For the compound “ARSHVGYTGAR [E2, EGFR-specific short peptide …]”, the “Binding efficacy of the short peptides in vitro” value with MDA-MB-231 cells [1] is “highest binding efficacy”.

Regarding `CN(Cc1cnc2nc(N)nc(N)c2n1)c1ccc(C(=O)N[C@@H](CCC(=O)O)C(=O)O)cc1` [MTX, methotrexate], the “Percentage of cells in G0” value with MDA-MB-231 cells [2] came to 9%; with SiHa cells [8] it was 14.4%. In addition, the “Percentage of cells in G1” value in the data set on MDA-MB-231 cells [2] is 52.1%; in the data set with SiHa cells [8], 64.3%. The entries for the “Percentage of cells in G2-M” value in the data set with MDA-MB-231 cells [2] and with SiHa cells [8] were 14.9% and 10.7%, respectively. For the same compound, the “Percentage of cells in S” value was 19.1% in the data set with MDA-MB-231 cells [2] and 8.8% with SiHa cells [8]. For the same compound, the “Binding ability (% of cells, P2)” value in [3] is 99.6% and > 99%; in data set [9], 82.4%. Also, the “Binding (fluorescence) in confocal images” value in data set [4] is recorded as “only the free drug showed fluorescence”; in data set [7] it was “bound with the MDA-MB-231 cells similarly”. Also, the figures for the Cytotoxicity in the data set on MDA-MB-231 cells [5] and in the data set with SiHa cells [6] were 63% and 57%, respectively. The “Average tumor volume at the end of the treatment” value in the data set with MDA-MB-231 tumor (MTX 20 mg/kg or MTX–G–P4LDN–E2 35 mg/kg (equivalent MTX), day 25, n = 6, mean ± SD, control 2890 ± 85.440) is reported as 661.8 ± 209.067 mm^3. The “Reduction in tumor volume compared to control” value in the data set with MDA-MB-231 tumor (MTX 20 mg/kg or MTX–G–P4LDN–E2 35 mg/kg, day 25, n = 6) amounted to 77.2%.
